Results published in US20160010047A1, “DEVICE AND METHOD FOR WETTING A SAMPLE WITH AN AEROSOL” (Helmholtz Zentrum Muenchen Deutsches Forschungszentrum fuer …, priority 2013, published 2016).

Tested on: human pulmonary cell line (A549) stimulated with TNFα; interleukin 8 (IL-8)
Experiment: Anti-inflammatory effect on TNFα-stimulated A549 cells (IL-8 as inflammatory marker), substance applied as aerosol at the ALI with device 2 or pipetted on submerged cells
Type: cell-based
Settings: FIG. 4
Text: On the other hand, if polarized lung epithelial cells (e.g. primary cells) are used, significant differences in the biological response can be expected. After stimulation of A549 cells with the tumor necrosis factor α (TNF α), the interleukin 8 (IL-8) as inflammatory marker is induced approximately 7-fold (corresponds to value 1 in FIG. 4), relative to the basal value (non-stimulated cells). […] This exemplifies that with device 2, aerosolized active substances can be applied accurately dosed and without loss of bioactivity (e.g. due to shear stresses during nebulization) on human pulmonary cells at the ALI. Thus, device 2 is suitable for the systematic screening of substances with respect to their potential as an active ingredient in aerosolized form.
This device 2 is thereby validated as a tool for quantitative drug screening for aerosolized liquid substances.

## CC(C)C[C@H](NC(=O)[C@H](Cc1ccccc1)NC(=O)c1cnccn1)B(O)O [Bortezomib]
A549 cells at the ALI, TNFα-stimulated
  dose-response curve after administration in aerosolized form with device 2 (ALI) compared with reference curve (substance pipetted on submerged cells): identical to the reference curve
A549 cells, non-polarized, stimulated with TNFα, dose-dependent
  reduction of the TNFα-induced inflammatory effect (IL-8 induction), factor: ≤ 2
